Source: patent US20250188092A1, “RIFAMYCIN ANALOGS” (THE REGENTS OF THE UNIVERSITY OF MICHIGAN, priority 2021, published 2025)
≈ marks a conversion by molar mass, not a printed value.

What was measured:
E. coli WT RNAP = target: T1, E. coli WT RNAP (Escherichia coli, UniProt P0A8V2); assay: biochemical
T1 construct: made in house

[1] = target: T2, E. coli D516V (RIF^R) RNAP (Escherichia coli, UniProt P0A8V2, D516V); assay: biochemical
T2 construct: made in house

[2] = target: T3, E. coli S531L (RIF^R) RNAP (Escherichia coli, UniProt P0A8V2, S531L); assay: biochemical
T3 construct: made in house

VERO cells (ATCC CRL-81) = assay: Vero cell toxicity; assay type: cell-based; settings: Chlorocebus sabaeus, Vero; 72 hours exposure
Procedure: Cytotoxicity for a mammalian cell line was determined by exposing VERO cells (ATCC CRL-81) to serial dilutions of test compounds for 72 hours, followed by addition of resazurin and measurement of fluorescence after 4 hours incubation (Choules, et al., Antimnicrob. Agents Chemother. 2019, 63, e02204-02218).

MTB H37Rv ATCC 27294 = assay: MIC, microplate Alamar Blue assay (MABA); assay type: cell-based, Mycobacterium tuberculosis
M. tuberculosis H37Rv = assay: Minimum bactericidal concentration (MBC, CFU Assay); assay type: cell-based, Mycobacterium tuberculosis
DPX2 cells = settings: for DPX2 Viability @ 6.25 μM: 24 h; for DPX2 Viability @ 25 μM: human
[3] = Mycobacterium tuberculosis, MTB H37Rv ATCC 27294, microplate Alamar Blue assay, lowest concentration giving ≥90% reduction in fluorescence

| Compound | IC50 (E. coli WT RNAP) [µM] | IC50 [1] [µM] | IC50 [2] [µM] | IC50 (VERO cells (ATCC CRL-81)) [µM] | MIC90 MABA Rel to RMP (MTB H37Rv ATCC 27294) | MIC (MTB H37Rv ATCC 27294; Mycobacterium tuberculosis, MTB H37Rv ATCC 27294, microplate Alamar Blue assay, lowest concentration giving ≥90% reduction in fluorescence, read-out: MIC90 MABA) [µM] | MBC99 Day 7 (CFU Assay) MBC99 Rel to RMP (M. tuberculosis H37Rv; CFU Assay MBC99 relative to rifampin (RMP = 1)) | MBC (M. tuberculosis H37Rv; Mycobacterium tuberculosis, 168 h, Day 7, M. tuberculosis H37Rv, ≥99% reduction in colony forming units, read-out: MBC99 Day 7 (CFU Assay) MBC99) [µM] | MIC90 (MTB H37Rv ATCC 27294; [3]) [µM] | DPX2 Viability @ 6.25 μM (DPX2 cells) [%] | DPX2 Viability @ 25 μM (DPX2 cells) [%] | DPX2 Viability (DPX2 cells; 21 μM) [%] |
| --- | --- | --- | --- | --- | --- | --- | --- | --- | --- | --- | --- | --- |
| CO[C@H]1/C=C/O[C@@]2(C)Oc3c(C)c(O)c4c(=O)c(c5oc6cccc(OCCCCN7CCN(C(=O)OC(C)(C)C)CC7)c6nc-5c4c3C2=O)NC(=O)/C(C)=C\C=C\[C@H](C)[C@H](O)[C@@H](C)[C@@H](O)[C@@H](C)[C@H](OC(C)=O)[C@@H]1C [Compound 5c, Tert-Butyl 4-(4-{[(7S,9E,11S,12R,13S,14R,15R,16R,17S,18S,19E,21Z)-13-(acetyloxy)-2,15,17-trihydroxy-11-methoxy-3,7,12,14,16,18,22-heptamethyl-6,23,37-trioxo-8,27,38-trioxa-24,34-diazahexacyclo[23.11.1.1^4,7.0^5,36.0^26,35.0^28,33]octatriaconta-1(36)2,4,9,19,21,25,28(33)29,31,34-undecaen-32-yl]oxy}butyl)piperazine-1-carboxylate] | < 0.005 | 22 | 300 | 6.2 | 0.89 | 0.024 (≈ 0.025 µg/mL) | 0.77 | 0.1 (≈ 0.104 µg/mL) | – | – | – | – |
| CO[C@H]1/C=C/O[C@@]2(C)Oc3c(C)c(O)c4c(=O)c(c5oc6cccc(OCc7cccc(CN8CCN(C(C)=O)CC8)c7)c6nc-5c4c3C2=O)NC(=O)/C(C)=C\C=C\[C@H](C)[C@H](O)[C@@H](C)[C@@H](O)[C@@H](C)[C@H](OC(C)=O)[C@@H]1C [Compound 11c, (7S,9E,11S,12R,13S,14R,15R,16R,17S,18S,19E,21Z)-32-({3-[(4-Acetylpiperazin-1-yl)methyl]phenyl}methoxy)-2,15,17-trihydroxy-11-methoxy-3,7,12,14,16,18,22-heptamethyl-6,23,37-trioxo-8,27,38-trioxa-24,34-diazahexacyclo-[23.11.1.1^4,7.0^5,36.0^26,35.0^28,33]octatriaconta-1(36)2,4,9,19,21,25,28,30,32,34-undecaen-13-yl acetate] | 0.019 | 8.8 | 330 | > 8 | 1.4 | – | – | – | 0.058 | 103 | 70 | – |
| CCC(=O)N1CCN(Cc2cccc(COc3cccc4oc5c6c(=O)c7c(O)c(C)c8c(c7c-5nc34)C(=O)[C@@](C)(O/C=C/[C@H](OC)[C@@H](C)[C@@H](OC(C)=O)[C@H](C)[C@H](O)[C@H](C)[C@@H](O)[C@@H](C)/C=C/C=C(/C)C(=O)N6)O8)c2)CC1 [Compound 11d, (7S,9E,11S,12R,13S,14R,15R,16R,17S,1S,19E,21Z)-2,15,17-Trihydroxy-11-methoxy-3,7,12,14,16,18,22-heptamethyl-6,23,37-trioxo-32-{(3-[(4-propanoylpiperazin-1-yl)methyl]phenyl}methoxy)-8,27,38-trioxa-24,34-diazahexacyclo[23.11.1.1^4,7.0^5,36.0^26,35.0^28,33]octatriaconta-1(36)2,4,9,19,21,25,28,30,32,34-undecaen-13-yl acetate] | < 0.005 | 0.9 | 94 | 19.1 | 0.43 | – | – | – | 0.016 | 77 | 33 | – |
| CO[C@H]1/C=C/O[C@@]2(C)Oc3c(C)c(O)c4c(=O)c(c5oc6cccc(OCc7cccc(CN8CCN(C(=O)CN9CCOCC9)CC8)c7)c6nc-5c4c3C2=O)NC(=O)/C(C)=C\C=C\[C@H](C)[C@H](O)[C@@H](C)[C@@H](O)[C@@H](C)[C@H](OC(C)=O)[C@@H]1C [Compound 11f, (7S,9E,11S,12R,13S,14R,15R,16R,17S,1S,19E,21Z)-2,15,17-Trihydroxy-11-methoxy-3,7,12,14,16,18,22-heptamethyl-32-{[3-({4-[2-(morpholin-4-yl)acetyl]piperazin-1-yl}methyl)phenyl]methoxy}-6,23,37-trioxo-8,27,38-trioxa-24,34-diazahexacyclo[23.11.1.1^4,7.0^5,36.0^26,35.0^28,33]octatriaconta-1(36)2,4,9,19,21,25,28,30,32,34-undecaen-13-yl acetate] | 0.01 | 39 | > 500 | 6.2 | 0.65 | – | – | – | 0.024 | 103 | – | 57 |
| CO[C@H]1/C=C/O[C@@]2(C)Oc3c(C)c(O)c4c(=O)c(c5oc6cccc(OCc7cccc(CN8CCN(C(=O)Cc9ccccc9)CC8)c7)c6nc-5c4c3C2=O)NC(=O)/C(C)=C\C=C\[C@H](C)[C@H](O)[C@@H](C)[C@@H](O)[C@@H](C)[C@H](OC(C)=O)[C@@H]1C [Compound 11g, (7S,9E,11S,12R,13S,14R,15R,16R,17S,18S,19E,21Z)-2,15,17-Trihydroxy-11-methoxy-3,7,12,14,16,18,22-heptamethyl-6,23,37-trioxo-32-[(3-{[4-(2-phenylacetyl)-piperazin-1-yl]methyl}phenyl)methoxy]-8,27,38-trioxa-24,34-diazahexacyclo[23.11.1.1^4,7.0^5,36.0^26,35.0^28,33]octatriaconta-1(36)2,4,9,19,21,25,28,30,32,34-undecaen-13-yl acetate] | < 0.005 | 0.58 | 28 | > 32 | 0.30 | – | – | – | 0.011 | 88 | 70 | – |
| CO[C@H]1/C=C/O[C@@]2(C)Oc3c(C)c(O)c4c(=O)c(c5oc6cccc(OCc7ccc(CN8CCN(C(=O)CN9CCOCC9)CC8)cc7)c6nc-5c4c3C2=O)NC(=O)/C(C)=C\C=C\[C@H](C)[C@H](O)[C@@H](C)[C@@H](O)[C@@H](C)[C@H](OC(C)=O)[C@@H]1C [Compound 16c, (7S,9E,11S,12R,13S,14R,15R,16R,17S,18S,19E,21Z)-2,15,17-Trihydroxy-11-methoxy-3,7,12,14,16,18,22-heptamethyl-32-{[4-({4-[2-(morpholin-4-yl)acetyl]piperazin-1-yl}methyl)phenyl]methoxy}-6,23,37-trioxo-8,27,38-trioxa-24,34-diazahexacyclo[23.11.1.1^4,7.0^5,36.0^26,35.0^28,33]octatriaconta-1(36)2,4,9,19,21,25,28,30,32,34-undecaen-13-yl acetate] | 0.005 | 10 | 92 | > 8 | 0.51 | – | – | – | 0.019 | 96 | 55 | – |
| CO[C@H]1/C=C/O[C@@]2(C)Oc3c(C)c(O)c4c(=O)c(c5oc6cc(C)cc(N7CCN(CC(C)C)CC7)c6nc-5c4c3C2=O)NC(=O)/C(C)=C\C=C\[C@H](C)[C@H](O)[C@@H](C)[C@@H](O)[C@@H](C)[C@H](OC(C)=O)[C@@H]1C [Compound 30c, (7S,9E,11S,12R,13S,14R,15R,16R,17S,18S,19E,21Z)-2,15,17-Trihydroxy-11-methoxy-3,7,12,14,16,18,22,30-octamethyl-32-[4-(2-methylpropyl)piperazin-1-yl]-6,23,37-trioxo-8,27,38-trioxa-24,34-diazahexacyclo[23.11.1.1^4,7.0^5,36.0^26,35.0^28,33]octatriaconta-1(36)2,4,9,19,21,25,28,30,32,34-undecaen-13-yl acetate] | 0.006 | 10 | 130 | > 8 | <0.6 | – | – | – | < 0.016 | 93 | 49 | – |
| CO[C@H]1/C=C/O[C@@]2(C)Oc3c(C)c(O)c4c(=O)c(c5oc6cc(C=Nc7ccc(N8CCOCC8)cc7)cc(N7CCN(C)CC7)c6nc-5c4c3C2=O)NC(=O)/C(C)=C\C=C\[C@H](C)[C@H](O)[C@@H](C)[C@@H](O)[C@@H](C)[C@H](OC(C)=O)[C@@H]1C [Compound 32, (7S,9E,11S,12R,13S,14R,15R,16R,17S,18S,19E,21Z)-2,15,17-trihydroxy-11-methoxy-3,7,12,14,16,18,22-heptamethyl-32-(4-methylpiperazin-1-yl)-30-{N-[4-(morpholin-4-yl)phenyl]carboximidoyl}-6,23,37-trioxo-8,27,38-trioxa-24,34-diazahexacyclo[23.11.1.1^4,7.0^5,36.0^26,35.0^28,33]octatriaconta-1,3,5(36)9,19,21,25,28,30,32,34-undecaen-13-yl acetate] | 0.01 | 30 | 330 | > 8 | 1.74 | – | – | – | 0.047 | 116 | 100 | – |
